In patent publication US8512971B2, “Compounds and methods of use thereof for assaying lysophospholipase D activity” (Echelon Biosciences, Inc., priority 2002, dated 2013):

Assays:
[1] = target: lysoPLD (Bos taurus, UniProt A1A4K5); details: 25° C.
Experimental: FIG. 9 illustrates the evaluation of the fluorogenic substrate FS-1 using fetal bovine serum which is known to be a rich source of LPA that is “self-regenerating” through the in situ activity of lysoPLD. (Umezu-Goto, et al., Journal of Cell Biology, 158:227-33. (2002)) A 10 mM stock solution of FS-1 in MeOH was added to 50 μL solutions of 1% or 10% FBS in PBS and incubated at 25° C. overnight. Measurements were taken on a Hewlett Packard Fusion instrument at 1, 3, 5, and 18 hours.

[2] = target: T1, purified lysoPLD from human serum (Homo sapiens, UniProt Q13822); details: cited from earlier work
T1 construct: The purified lysoPLD from human serum; host or cells: human serum (purified; values quoted from Tokumura et al., J. Biol. Chem. 277:39436-42, 2002)

| Molecule | fluorescence change on cleavage of the quenched substrate ([1]; 1% or 10% FBS in PBS, read at 1, 3, 5 and 18 hours, unoptimized assay) | substrate concentration of optimal conversion ([1]; FBS in PBS) | Km [2] | Vmax [2] |
| --- | --- | --- | --- | --- |
| DABCYL-aminoethyl (N-BODIPY-FL®-aminocaproyl)-2-tert-buiylglycerylphosphate [FS-1] | increase in fluorescence with time | 100 µM |  |  |
| CCCCCCCCCCCCCCCC(=O)OC[C@@H](O)COP(=O)([O-])OCC[N+](C)(C)C [16:0 LPC] |  |  | 260 µM | 103 nmol/min |
